From publication PMC12621043, “Un-LOK-ing a New Approach for Conformational Selective Targeting of STK10 (LOK)” (ACS Medicinal Chemistry Letters, 2025) come the findings set out here.

What all share (assay): DSF Tm panel
Common to all, as to assay type: binding
Settings in all cases: 10 μM compound

For one test, the system named is TAF1A.
A further test deals with T1, ULK1A (Homo sapiens, UniProt O75385).
T1 construct: purchased in-house DSF kinase panel (SGC-style construct names; the trailing letter is the construct ID)
T1 sequence (O75385 1-283): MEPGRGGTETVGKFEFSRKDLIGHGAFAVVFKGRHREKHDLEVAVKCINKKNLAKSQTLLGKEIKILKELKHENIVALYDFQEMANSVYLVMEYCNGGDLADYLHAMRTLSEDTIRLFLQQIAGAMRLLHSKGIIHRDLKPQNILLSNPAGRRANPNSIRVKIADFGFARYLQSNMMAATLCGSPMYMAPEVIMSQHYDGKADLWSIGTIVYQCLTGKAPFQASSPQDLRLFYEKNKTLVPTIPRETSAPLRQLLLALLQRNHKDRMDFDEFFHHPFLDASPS

A further test deals with T2, MAP2K4A (Homo sapiens, UniProt P45985).
T2 construct: purchased in-house DSF kinase panel (SGC-style construct names; the trailing letter is the construct ID)
T2 sequence (P45985 102-367): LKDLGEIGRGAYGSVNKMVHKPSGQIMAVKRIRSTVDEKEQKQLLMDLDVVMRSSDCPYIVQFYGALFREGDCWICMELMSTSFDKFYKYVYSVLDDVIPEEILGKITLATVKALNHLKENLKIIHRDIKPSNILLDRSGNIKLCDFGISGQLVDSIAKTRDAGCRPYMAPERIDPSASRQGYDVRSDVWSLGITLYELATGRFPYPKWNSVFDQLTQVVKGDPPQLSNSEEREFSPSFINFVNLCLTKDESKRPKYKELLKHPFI

The next test has as its target T3, MAP2K1A (Homo sapiens, UniProt Q02750).
T3 construct: purchased in-house DSF kinase panel (SGC-style construct names; the trailing letter is the construct ID)

The target of another test is T4, CHEK2A (Homo sapiens, UniProt O96017).
T4 construct: purchased in-house DSF kinase panel (SGC-style construct names; the trailing letter is the construct ID)
T4 sequence (O96017 210-531): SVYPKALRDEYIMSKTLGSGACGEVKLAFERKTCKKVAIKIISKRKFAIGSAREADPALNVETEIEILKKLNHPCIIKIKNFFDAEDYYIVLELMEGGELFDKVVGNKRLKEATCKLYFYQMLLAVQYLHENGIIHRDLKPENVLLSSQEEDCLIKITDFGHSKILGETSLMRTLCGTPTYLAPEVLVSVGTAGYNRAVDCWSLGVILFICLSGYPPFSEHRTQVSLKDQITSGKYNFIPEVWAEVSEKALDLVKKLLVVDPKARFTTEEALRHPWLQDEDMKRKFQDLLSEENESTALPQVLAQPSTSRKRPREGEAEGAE

The target in another test is T5, CAMK1DA (Homo sapiens, UniProt Q8IU85).
T5 construct: purchased in-house DSF kinase panel (SGC-style construct names; the trailing letter is the construct ID)
T5 sequence (Q8IU85 whole entry): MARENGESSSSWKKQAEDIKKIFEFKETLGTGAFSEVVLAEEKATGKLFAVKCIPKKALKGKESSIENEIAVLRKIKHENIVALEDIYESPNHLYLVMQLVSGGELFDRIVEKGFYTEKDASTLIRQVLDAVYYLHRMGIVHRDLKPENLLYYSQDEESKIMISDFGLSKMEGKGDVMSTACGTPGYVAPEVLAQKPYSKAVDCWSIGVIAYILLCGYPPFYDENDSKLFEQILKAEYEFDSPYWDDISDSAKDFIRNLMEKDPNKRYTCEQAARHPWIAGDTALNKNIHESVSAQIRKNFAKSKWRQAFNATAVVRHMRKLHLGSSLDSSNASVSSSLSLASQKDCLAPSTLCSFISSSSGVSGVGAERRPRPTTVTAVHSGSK

Another test deals with T6, GSK3BB (Homo sapiens, UniProt P49841).
T6 construct: purchased in-house DSF kinase panel (SGC-style construct names; the trailing letter is the construct ID)
T6 sequence (P49841 35-386): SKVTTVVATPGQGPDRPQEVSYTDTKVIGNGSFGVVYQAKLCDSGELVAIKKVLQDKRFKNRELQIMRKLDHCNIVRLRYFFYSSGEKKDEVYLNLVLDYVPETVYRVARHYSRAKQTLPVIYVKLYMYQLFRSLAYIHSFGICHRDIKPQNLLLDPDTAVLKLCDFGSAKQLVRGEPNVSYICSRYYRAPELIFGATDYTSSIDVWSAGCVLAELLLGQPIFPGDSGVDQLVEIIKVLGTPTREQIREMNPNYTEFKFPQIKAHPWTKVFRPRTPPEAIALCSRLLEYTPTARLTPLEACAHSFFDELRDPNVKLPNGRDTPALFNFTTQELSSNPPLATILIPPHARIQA

In the next test the target is T7, FGFR1B (Homo sapiens, UniProt P11362).
T7 construct: purchased in-house DSF kinase panel (SGC-style construct names; the trailing letter is the construct ID)
T7 sequence (P11362 456-767): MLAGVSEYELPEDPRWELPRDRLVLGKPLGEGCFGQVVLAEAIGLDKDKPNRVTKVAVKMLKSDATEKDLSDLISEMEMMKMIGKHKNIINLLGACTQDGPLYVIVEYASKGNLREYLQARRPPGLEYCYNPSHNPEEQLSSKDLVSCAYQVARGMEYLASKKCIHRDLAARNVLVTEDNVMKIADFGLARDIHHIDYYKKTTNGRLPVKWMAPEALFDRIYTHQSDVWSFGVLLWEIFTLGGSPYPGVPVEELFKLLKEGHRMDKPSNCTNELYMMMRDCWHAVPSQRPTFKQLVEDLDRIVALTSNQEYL

In another test the target is T8, PIM3A (Homo sapiens, UniProt Q86V86).
T8 construct: purchased in-house DSF kinase panel (SGC-style construct names; the trailing letter is the construct ID)

In another test the target is T9, CLK3A (Homo sapiens, UniProt P49761).
T9 construct: purchased in-house DSF kinase panel (SGC-style construct names; the trailing letter is the construct ID)
T9 sequence (P49761 127-484): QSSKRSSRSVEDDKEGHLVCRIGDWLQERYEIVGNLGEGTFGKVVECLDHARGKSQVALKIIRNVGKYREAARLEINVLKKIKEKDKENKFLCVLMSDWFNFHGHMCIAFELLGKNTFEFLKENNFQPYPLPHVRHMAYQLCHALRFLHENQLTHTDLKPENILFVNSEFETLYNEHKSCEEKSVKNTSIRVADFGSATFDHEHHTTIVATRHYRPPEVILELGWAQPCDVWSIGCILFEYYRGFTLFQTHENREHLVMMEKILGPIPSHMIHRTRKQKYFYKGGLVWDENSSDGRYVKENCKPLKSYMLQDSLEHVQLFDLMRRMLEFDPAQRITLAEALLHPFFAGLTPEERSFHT

The target of a further test is T10, BMX (BMXA) (Homo sapiens, UniProt P51813).
T10 construct: purchased in-house DSF kinase panel (SGC-style construct names; the trailing letter is the construct ID)
T10 sequence (P51813 411-675): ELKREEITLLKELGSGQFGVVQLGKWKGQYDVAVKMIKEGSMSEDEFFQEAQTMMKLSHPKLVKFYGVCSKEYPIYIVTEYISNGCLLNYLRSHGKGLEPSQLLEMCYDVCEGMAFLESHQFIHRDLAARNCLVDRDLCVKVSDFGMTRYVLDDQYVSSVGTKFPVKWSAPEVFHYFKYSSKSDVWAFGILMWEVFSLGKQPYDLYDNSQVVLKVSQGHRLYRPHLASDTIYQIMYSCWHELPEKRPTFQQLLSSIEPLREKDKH

In a further test the target is T11, EPHA5A (Homo sapiens, UniProt P54756).
T11 construct: purchased in-house DSF kinase panel (SGC-style construct names; the trailing letter is the construct ID)
T11 sequence (P54756 653-939): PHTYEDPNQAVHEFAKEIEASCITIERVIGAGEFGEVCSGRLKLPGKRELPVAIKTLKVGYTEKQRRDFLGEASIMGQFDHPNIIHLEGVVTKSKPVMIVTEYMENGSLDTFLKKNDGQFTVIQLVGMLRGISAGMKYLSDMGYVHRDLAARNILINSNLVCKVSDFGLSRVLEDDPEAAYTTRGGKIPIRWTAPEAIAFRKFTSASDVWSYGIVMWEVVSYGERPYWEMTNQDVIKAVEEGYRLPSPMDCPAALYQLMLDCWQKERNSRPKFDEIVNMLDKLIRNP

For another test, the target named is T12, BRD4 (BRD4A) (Homo sapiens, UniProt O60885).
T12 construct: purchased in-house DSF kinase panel (SGC-style construct names; the trailing letter is the construct ID)

Another test addresses T13, GAKA (Homo sapiens, UniProt O14976).
T13 construct: purchased in-house DSF kinase panel (SGC-style construct names; the trailing letter is the construct ID)
T13 sequence (O14976 14-351): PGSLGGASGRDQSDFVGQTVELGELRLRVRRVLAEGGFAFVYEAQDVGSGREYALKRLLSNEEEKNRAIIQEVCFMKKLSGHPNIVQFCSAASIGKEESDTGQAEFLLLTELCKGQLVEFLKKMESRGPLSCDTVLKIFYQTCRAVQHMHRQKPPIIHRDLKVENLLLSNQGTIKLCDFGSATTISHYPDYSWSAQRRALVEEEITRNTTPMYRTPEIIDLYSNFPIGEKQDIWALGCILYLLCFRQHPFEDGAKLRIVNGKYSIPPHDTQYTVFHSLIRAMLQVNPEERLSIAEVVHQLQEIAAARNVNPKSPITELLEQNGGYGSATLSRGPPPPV

For another test, the target named is T14, PAK1A (Homo sapiens, UniProt Q13153).
T14 construct: purchased in-house DSF kinase panel (SGC-style construct names; the trailing letter is the construct ID)
T14 sequence (Q13153 249-545): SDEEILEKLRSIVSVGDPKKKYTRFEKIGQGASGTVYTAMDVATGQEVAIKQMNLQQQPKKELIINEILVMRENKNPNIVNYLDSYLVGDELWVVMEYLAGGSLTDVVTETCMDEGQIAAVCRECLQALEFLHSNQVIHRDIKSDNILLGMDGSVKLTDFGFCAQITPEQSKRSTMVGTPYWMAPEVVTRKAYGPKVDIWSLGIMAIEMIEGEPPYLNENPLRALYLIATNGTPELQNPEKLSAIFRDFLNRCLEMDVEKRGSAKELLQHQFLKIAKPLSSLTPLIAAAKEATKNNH

The target of the next test is T15, SRCA (Homo sapiens, UniProt P12931).
T15 construct: purchased in-house DSF kinase panel (SGC-style construct names; the trailing letter is the construct ID)
T15 sequence (P12931 254-536): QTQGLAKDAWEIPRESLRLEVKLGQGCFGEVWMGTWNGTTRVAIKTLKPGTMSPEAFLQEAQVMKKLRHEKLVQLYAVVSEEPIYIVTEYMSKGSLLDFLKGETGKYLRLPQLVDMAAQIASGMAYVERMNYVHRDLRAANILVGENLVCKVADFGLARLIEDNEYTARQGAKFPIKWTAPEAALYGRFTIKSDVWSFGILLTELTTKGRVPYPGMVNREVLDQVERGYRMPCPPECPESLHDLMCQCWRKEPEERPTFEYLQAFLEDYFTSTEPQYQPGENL

T3 sequence (Q02750 68-361): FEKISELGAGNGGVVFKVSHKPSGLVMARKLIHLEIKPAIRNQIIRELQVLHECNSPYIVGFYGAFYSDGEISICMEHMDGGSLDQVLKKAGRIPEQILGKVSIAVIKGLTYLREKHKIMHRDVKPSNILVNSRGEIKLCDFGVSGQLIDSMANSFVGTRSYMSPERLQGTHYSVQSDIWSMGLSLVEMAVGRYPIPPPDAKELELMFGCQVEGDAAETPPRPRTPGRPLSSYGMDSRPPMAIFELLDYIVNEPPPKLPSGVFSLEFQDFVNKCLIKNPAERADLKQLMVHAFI

Turning to `Cc1ccc(F)cc1CNC(=O)Nc1ccc2cc1OCCOCCNc1ccn3ncc-2c3n1` [compound 26], the “ΔTm TAF1A” value with TAF1A is 0,1 °C. Further, the thermal shift (ΔTm) at 10 µM on ULK1A was found to be 0.1 °C; at MAP2K4A, 3.2 °C; at MAP2K1A, 0.3 °C; on CHEK2A it was 7.2 °C; at CAMK1DA, 1 °C; on GSK3BB it was 0.5 °C. In addition, the thermal shift (ΔTm) at 10 µM on FGFR1B came to 1.9 °C; on PIM3A, 4 °C; on CLK3A, 0.1 °C; on BMX (BMXA), 0.3 °C; on EPHA5A it was 1.1 °C; at BRD4 (BRD4A) it was 0.5 °C. Also, the ΔTm at 10 µM at GAKA was determined as 6 °C; at PAK1A, 0.7 °C; at SRCA it was 2.2 °C.
As to `O=C(NCc1ccccc1C(F)(F)F)Nc1ccc2cc1OCCOCCNc1ccn3ncc-2c3n1` [compound 27], the “ΔTm TAF1A” value in the test with TAF1A was 0,1 °C. In addition, the ΔTm at 10 µM at ULK1A was 0.4 °C; on MAP2K4A it was 5.1 °C; at MAP2K1A it was 0.7 °C; at CHEK2A, 9.9 °C; on CAMK1DA, 1.7 °C; at GSK3BB, -0.2 °C. Further, the ΔTm at 10 µM on FGFR1B was 1.3 °C; on PIM3A, 4.6 °C; on CLK3A it was 0.2 °C; on BMX (BMXA), 3 °C; at EPHA5A it was 1.6 °C; at BRD4 (BRD4A) it was 1.8 °C. The shift in melting temperature (ΔTm) at 10 µM came out at 5.4 °C on GAKA, 1.5 °C on PAK1A and 2.5 °C on SRCA.
As to `O=C(NCc1ccc(C(F)(F)F)cc1)Nc1ccc2cc1OCCOCCNc1ccn3ncc-2c3n1` [compound 28], in the test with TAF1A, the “ΔTm TAF1A” value is 0,3 °C. Besides, the shift in melting temperature (ΔTm) at 10 µM on ULK1A came to 0.6 °C; on MAP2K4A it was 5 °C; at MAP2K1A it was 1 °C; on CHEK2A, 7.7 °C; at CAMK1DA, 2.1 °C; on GSK3BB, 0.2 °C. Besides, the shift in melting temperature (ΔTm) at 10 µM on FGFR1B was found to be 1.5 °C; at PIM3A it was 4.3 °C; on CLK3A, 0.4 °C; at BMX (BMXA), 2.7 °C; at EPHA5A it was 1.9 °C; on BRD4 (BRD4A) it was 2.1 °C. For the same compound, the ΔTm at 10 µM on GAKA stood at 5.1 °C; on PAK1A, 1.8 °C; at SRCA it was 2.3 °C.
`COc1ccccc1CNC(=O)Nc1ccc2cc1OCCOCCNc1ccn3ncc-2c3n1` [compound 29]: the “ΔTm TAF1A” value in the test on TAF1A was 0,0 °C. The ΔTm at 10 µM at ULK1A turned out to be 0.4 °C; on MAP2K4A, 2.8 °C; at MAP2K1A, 0.6 °C; on CHEK2A it was 5.8 °C; on CAMK1DA, 0.4 °C; on GSK3BB, 1.2 °C. Moreover, the ΔTm at 10 µM at FGFR1B was 1.4 °C; at PIM3A, 3.9 °C; at CLK3A, 0.2 °C; at BMX (BMXA), -0.1 °C; at EPHA5A it was 0.6 °C; on BRD4 (BRD4A) it was 0.3 °C. Further, the ΔTm at 10 µM at GAKA was 4.5 °C; on PAK1A it was 0.1 °C; on SRCA, 2 °C.
In the case of `COc1cccc(CNC(=O)Nc2ccc3cc2OCCOCCNc2ccn4ncc-3c4n2)c1` [compound 30], in the test on TAF1A, the “ΔTm TAF1A” value was -0,1 °C. The ΔTm at 10 µM came out at 0.5 °C at ULK1A; 3.2 °C at MAP2K4A; 0.6 °C on MAP2K1A; 5.1 °C on CHEK2A; 0.4 °C at CAMK1DA; 1.3 °C at GSK3BB. Besides, the ΔTm at 10 µM on FGFR1B worked out at 1.4 °C; on PIM3A, 4.1 °C; on CLK3A, 0.2 °C; on BMX (BMXA) it was 0.4 °C; at EPHA5A, 0.7 °C; at BRD4 (BRD4A), 0.1 °C. In addition, the values for the ΔTm at 10 µM on GAKA, at PAK1A and on SRCA were 4.7 °C, 0.2 °C and 2.7 °C, respectively.
Consider `COc1ccc(CNC(=O)Nc2ccc3cc2OCCOCCNc2ccn4ncc-3c4n2)cc1` [compound 31], for which, in the test with TAF1A, the “ΔTm TAF1A” value was 0,0 °C. The shift in melting temperature (ΔTm) at 10 µM at ULK1A worked out at 0.6 °C; at MAP2K4A it was 4.3 °C; at MAP2K1A, 0.6 °C; at CHEK2A, 7 °C; on CAMK1DA, 1.2 °C; at GSK3BB, 1 °C. Besides, the shift in melting temperature (ΔTm) at 10 µM was found to be 1.5 °C on FGFR1B; 4.9 °C at PIM3A; 0 °C on CLK3A; 1.4 °C at BMX (BMXA); 1.2 °C at EPHA5A; 0.6 °C on BRD4 (BRD4A). The values for the ΔTm at 10 µM on GAKA, on PAK1A and on SRCA were 6.2 °C, 0.5 °C and 3.2 °C, respectively.
For the compound `COc1ccc(CNC(=O)Nc2ccc3cc2OCCOCCNc2ccn4ncc-3c4n2)cc1F` [compound 32], in the test with TAF1A, the “ΔTm TAF1A” value was 0,2 °C. The ΔTm at 10 µM at ULK1A stood at 0.5 °C; on MAP2K4A, 4 °C; at MAP2K1A, 0.7 °C; at CHEK2A, 6.8 °C; on CAMK1DA, 1.4 °C; on GSK3BB, 0.6 °C. Further, the ΔTm at 10 µM at FGFR1B is 1.2 °C; at PIM3A, -4.8 °C; on CLK3A, 0.2 °C; at BMX (BMXA), 1.1 °C; on EPHA5A, 1.2 °C; at BRD4 (BRD4A), 1.2 °C. Besides, the ΔTm at 10 µM on GAKA is 6 °C; on PAK1A, 1 °C; on SRCA, 2.6 °C.
Turning to `COc1cc(CNC(=O)Nc2ccc3cc2OCCOCCNc2ccn4ncc-3c4n2)ccc1F` [compound 33], the “ΔTm TAF1A” value in the test with TAF1A is 0,1 °C. Also, the ΔTm at 10 µM stood at 0.2 °C at ULK1A; 3.6 °C on MAP2K4A; 0.7 °C at MAP2K1A; 6.5 °C at CHEK2A; 1.1 °C at CAMK1DA; 1.6 °C at GSK3BB. The ΔTm at 10 µM on FGFR1B came out at 1.9 °C; on PIM3A it was 5.1 °C; on CLK3A, 0.5 °C; on BMX (BMXA) it was 0.3 °C; at EPHA5A, 1.4 °C; on BRD4 (BRD4A), 0.7 °C. Also, the ΔTm at 10 µM on GAKA came to 6.2 °C; on PAK1A it was 0.5 °C; on SRCA, 2.6 °C.
Regarding `C[C@H](NC(=O)Nc1ccc2cc1OCCOCCNc1ccn3ncc-2c3n1)c1ccccc1` [compound 34], in the test with TAF1A, the “ΔTm TAF1A” value is -0,3 °C. In addition, the ΔTm at 10 µM at ULK1A was -0.1 °C; on MAP2K4A it was 3.3 °C; at MAP2K1A, 0.7 °C; at CHEK2A, 6.3 °C; on CAMK1DA, 0.8 °C; on GSK3BB, 1.1 °C. Besides, the shift in melting temperature (ΔTm) at 10 µM on FGFR1B is 1.2 °C; on PIM3A, 4.4 °C; at CLK3A it was 0 °C; on BMX (BMXA), 0.1 °C; at EPHA5A, 1 °C; on BRD4 (BRD4A), -0.1 °C. Further, the thermal shift (ΔTm) at 10 µM came to 5.7 °C on GAKA, 0.3 °C on PAK1A and 1.4 °C at SRCA.
